# Source: patent US20230167118A1, “DEGRADATION OF BRUTON'S TYROSINE KINASE (BTK) BY CONJUGATION OF BTK INIDBITORS WITH E3 LIGASE LIGAND AND METHODS OF USE” (BEIGENE, LTD., priority 2020, published 2023)
# Assays:
# BTK = target: T1, BTK (Homo sapiens, UniProt Q06187); experiment: Cell Degradation: BTK degradation in TMD-8 cells, HTRF assay; assay type: cell-based; conditions: 6 h treatment, IC50 (DC50) of BTK degradation
# T1 construct: High control=Cell group with added DMSO and without compound, indicating microplate readings without BTK degradation; endogenous in cells; host or cells: TMD-8 cells
# T1 sequence (Q06187 whole entry): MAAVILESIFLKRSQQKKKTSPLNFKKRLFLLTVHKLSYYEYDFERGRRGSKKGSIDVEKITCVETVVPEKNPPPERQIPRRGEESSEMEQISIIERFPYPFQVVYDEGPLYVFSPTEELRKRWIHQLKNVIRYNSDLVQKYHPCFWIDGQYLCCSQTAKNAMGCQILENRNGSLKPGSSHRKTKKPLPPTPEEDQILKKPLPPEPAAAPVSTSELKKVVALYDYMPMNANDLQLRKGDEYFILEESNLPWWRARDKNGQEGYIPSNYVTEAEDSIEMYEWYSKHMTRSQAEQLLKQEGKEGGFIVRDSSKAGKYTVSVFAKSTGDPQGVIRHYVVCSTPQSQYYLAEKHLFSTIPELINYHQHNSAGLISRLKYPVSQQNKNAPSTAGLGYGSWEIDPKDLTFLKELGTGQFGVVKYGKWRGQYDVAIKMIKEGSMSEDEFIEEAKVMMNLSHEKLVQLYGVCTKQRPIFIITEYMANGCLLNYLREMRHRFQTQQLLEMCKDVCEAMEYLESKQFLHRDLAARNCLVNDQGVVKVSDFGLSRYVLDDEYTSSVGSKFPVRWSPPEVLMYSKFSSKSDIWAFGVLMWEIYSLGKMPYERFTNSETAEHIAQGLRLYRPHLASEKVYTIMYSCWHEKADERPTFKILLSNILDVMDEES
# How it was run: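 BTK levels read by HTRF (665 vs 620 nm) in lysates of TMD-8 cells after 6 h compound exposure (eight doses, 6-fold steps, 0.2% DMSO). Percent degradation relative to controls; four-parameter curve fitting gave DC50, with Dmax the top degradation.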
# HEK-293 cells = experiment: HEK-293 Cytotoxicity Assay (CellTiter-Glo); assay type: cell-based; conditions: Homo sapiens, HEK293, 72 h incubation, CellTiter-Glo luminescence
# How it was run: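 Four-parameter fit of % inhibition gives IC50, from CellTiter-Glo luminescent viability read-out. Cells exposed for 72 h to an 8-point, 4-fold series at 0.2% DMSO.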
Structure (SMILES),DC50 (BTK),IC50 (HEK-293 cells)
"Cc1cc(-c2ncnc3[nH]c(-c4ccc(N5CCN(CC6CCN(c7ccc(N8CCC(=O)NC8=O)c(F)c7)CC6)CC5)cc4)cc23)ccc1[C@@H](C)NC(=O)c1nc(C(C)(C)C)no1 [Example 111, (R)-3-(tert-butyl)-N-(1-(4-(6-(4-(4-((1-(4-(2,4-dioxotetrahydropyrimidin-1(2H)-yl)-3-fluorophenyl)piperidin-4-yl)methyl)piperazin-1-yl)phenyl)-7H-pyrrolo[2,3-d]pyrimidin-4-yl)-2-methylpheyl)ethyl)-1,2,4-oxadiazole-5-carboxamide]",2.3 nM,> 10 µM
"Cc1nn(C2CCN(CC3CCN(c4ccc(N5CCC(=O)NC5=O)cc4)CC3)CC2)c(C)c1-c1cc2c(-c3cc(CO)c([C@@H](C)NC(=O)c4noc(C(C)(C)C)n4)cc3F)ncnc2[nH]1 [Example 149, (R)-5-(tert-butyl)-N-(1-(4-(6-(1-(1-((1-(4-(2,4-dioxotetrahydropyrimidin-1(2H)-yl)phenyl)piperidin-4-yl)methyl)piperidin-4-yl)-3,5-dimethyl-1H-pyrazol-4-yl)-7H-pyrrolo[2,3-d]pyrimidin-4-yl)-5-fluoro-2-(hydroxymethyl)phenyl)ethyl)-1,2,4-oxadiazole-3-carboxamide]",0.27 nM,> 10 µM
"Cc1cc(-c2ncnc3[nH]c(-c4ccc(N5CCN(CC6CCN(c7ccc(N8CCC(=O)NC8=O)cc7)CC6)CC5)cc4)cc23)ccc1CNC(=O)c1noc(C2(C(F)(F)F)CC2)n1 [Example 51, N-(4-(6-(4-(4-((1-(4-(2,4-dioxotetrahydropyrimidin-1(2H)-yl)phenyl)piperidin-4-yl)methyl)piperazin-1-yl)phenyl)-7H-pyrrolo[2,3-d]pyrimidin-4-yl)-2-methylbenzyl)-5-(1-(trifluoromethyl)cyclopropyl)-1,2,4-oxadiazole-3-carboxamide]",0.38 nM,> 10 µM
"Cc1cc(N2CCC(CN3CCN(c4ccc(-c5cc6c(-c7ccc([C@@H](C)NC(=O)c8noc(C(C)(C)C)n8)c(CO)c7)ncnc6[nH]5)nc4)CC3)CC2)ccc1N1CCC(=O)NC1=O [Example 137, (R)-5-(tert-butyl)-N-(1-(4-(6-(5-(4-((1-(4-(2,4-dioxotetrahydropyrimidin-1(2H)-yl)-3-methylphenyl)piperidin-4-yl)methyl)piperazin-1-yl)pyridin-2-yl)-7H-pyrrolo[2,3-d]pyrimidin-4-yl)-2-(hydroxymethyl)phenyl)ethyl)-1,2,4-oxadiazole-3-carboxamide]",0.23 nM,> 10 µM
"Cc1cc(-c2ncnc3[nH]c(-c4ccc(N5CCN(CC6CCN(c7ccc(N8CCC(=O)NC8=O)cc7)CC6)CC5)cn4)cc23)ccc1[C@H](C)NC(=O)c1nc(C(C)(C)C)no1 [Example 147, (S)-3-(tert-butyl)-N-(1-(4-(6-(5-(4-((1-(4-(2,4-dioxotetrahydropyrimidin-1(2H)-yl)phenyl)piperidin-4-yl)methyl)piperazin-1-yl)pyridin-2-yl)-7H-pyrrolo[2,3-d]pyrimidin-4-yl)-2-methylphenyl)ethyl)-1,2,4-oxadiazole-5-carboxamide]",52.7 nM,> 10 µM
"Cc1cc(-c2ncnc3[nH]c(-c4ccc(N5CCN(CC6CCN(c7ccc(N8CCC(=O)NC8=O)cc7)CC6)CC5)cc4)cc23)ccc1[C@@H](C)NC(=O)c1nc(C(C)(C)C)no1 [Example 20, (R)-3-(tert-butyl)-N-(1-(4-(6-(4-(4-((1-(4-(2,4-dioxotetrahydropyrimidin-1(2H)-yl)phenyl)piperidin-4-yl)methyl)piperazin-1-yl)phenyl)-7H-pyrrolo[2,3-d]pyrimidin-4-yl)-2-methylphenyl)ethyl)-1,2,4-oxadiazole-5-carboxamide]",1.4 nM,> 10 µM
